8 molecules from PubChem BioAssay AID1745844 (Carcinogenic Potency Database (CPDB), 2022) can be followed below.

Molecules are shown by their SMILES. Values joined by “and” are separate entries in the source; they are usually repeats but may differ in a detail not shown here. Identical values can stand only once. Active and inactive are the calls of the source. How the calls were made is not given here.

The test system of this data set is rodent lifetime carcinogenesis bioassay, tumor incidence TD50. Description: chronic cancer bioassays in animals – CPDB, compiled studies (AID 1745844).
The mark [1] stands for this setting: mouse, strain B6AKF1, females, oral dosing, site: any site (literature study), lesion: several types, types named in the paper, dosed 76 weeks, study length 76 weeks.
Setting [2] is: mouse, strain B6AKF1, males, oral dosing, site: any site (literature study), lesion: several types, types named in the paper, dosed 76 weeks, study length 76 weeks.
Where [3] appears, read: mouse, strain B6AKF1, males, oral dosing, site: liver, lesion: hepatoma, dosed 76 weeks, study length 76 weeks.
Where [4] appears, read: mouse, strain B6AKF1, males, oral dosing, site: lung, lesion: adenoma, dosed 76 weeks, study length 76 weeks.
Where [5] appears, read: mouse, strain B6C3F1, females, oral dosing, site: any site (literature study), lesion: several types, types named in the paper, dosed 76 weeks, study length 76 weeks.
Where [6] appears, read: mouse, strain B6C3F1, females, oral dosing, site: liver, lesion: hepatoma, dosed 76 weeks, study length 76 weeks.
Setting [7] is: mouse, strain B6C3F1, males, oral dosing, site: any site (literature study), lesion: several types, types named in the paper, dosed 76 weeks, study length 76 weeks.
The mark [8] stands for this setting: mouse, strain B6C3F1, males, oral dosing, site: liver, lesion: hepatoma, dosed 76 weeks, study length 76 weeks.
The mark [9] stands for this setting: rat, strain Fischer 344, females, in feed, site: any site (literature study), lesion: several types, types named in the paper, dosed 103 weeks, study length 104 weeks.
Where [10] appears, read: rat, strain Fischer 344, males, in feed, site: any site (literature study), lesion: several types, types named in the paper, dosed 103 weeks, study length 104 weeks.

For the molecule `c1ccc(Nc2ccc3ccccc3c2)cc1`, the carcinogen call is, setting by setting: (hamster, strain Syrian Golden, females, by gavage, site: any site (literature study), lesion: several types, types named in the paper, dosed 84 weeks, study length 84 weeks) “negative (inactive)”; (hamster, strain Syrian Golden, males, by gavage, site: any site (literature study), lesion: several types, types named in the paper, dosed 84 weeks, study length 84 weeks) “negative (inactive)”; under setting [9], “negative (inactive)”; under setting [10], “negative (inactive)”; (rat, strain Sprague-Dawley, females, by gavage, site: any site (literature study), lesion: several types, types named in the paper, dosed 136 weeks, study length 136 weeks) “negative (inactive)”; (rat, strain Sprague-Dawley, males, by gavage, site: any site (literature study), lesion: several types, types named in the paper, dosed 160 weeks, study length 160 weeks) “negative (inactive)”. The TD50 (as a rule, the 50% point of the dose-response relation for the toxic effect studied) came out at 1080 mg/kg/day under setting [1]; 186 mg/kg/day under setting [2]; 460 mg/kg/day under setting [3]; 431 mg/kg/day under setting [4]; 10800 mg/kg/day (mouse, strain B6C3F1, females, in feed, site: kidney, lesion: tubular-cell adenoma + tubular-cell adenocarcinoma, dosed 103 weeks, study length 104 weeks); 5630 mg/kg/day (mouse, strain B6C3F1, females, in feed, site: liver, lesion: hepatocellular adenoma + hepatocellular carcinoma + neoplastic nodule, dosed 103 weeks, study length 104 weeks). The TD50 runs as follows: under setting [5], 1080 mg/kg/day; under setting [6], 1080 mg/kg/day; (mouse, strain B6C3F1, males, in feed, site: any site (literature study), lesion: several types, types named in the paper, dosed 103 weeks, study length 104 weeks) 4510 mg/kg/day; (mouse, strain B6C3F1, males, in feed, site: liver, lesion: hepatocellular adenoma + hepatocellular carcinoma + neoplastic nodule, dosed 103 weeks, study length 104 weeks) 1350 mg/kg/day; (mouse, strain B6C3F1, males, in feed, site: subcutaneous tissue, lesion: fibrosarcoma + neurofibrosarcoma + sarcoma, NOS, dosed 103 weeks, study length 104 weeks) 2380 mg/kg/day (inactive); under setting [7], 108 mg/kg/day. The same molecule had a TD50 under setting [8] of 165 mg/kg/day.
For the molecule `Oc1ccc(OCc2ccccc2)cc1`, the carcinogen call reads like this: under setting [1], “negative (inactive)”; (mouse, strain B6AKF1, females, oral dosing, site: liver, lesion: hepatoma, dosed 76 weeks, study length 76 weeks) “negative (inactive)”; (mouse, strain B6AKF1, females, oral dosing, site: lung, lesion: adenoma, dosed 76 weeks, study length 76 weeks) “negative (inactive)”; under setting [2], “negative (inactive)”; under setting [3], “negative (inactive)”; under setting [4], “negative (inactive)”. Further, the carcinogen call was “negative (inactive)” under setting [6] and “negative (inactive)” (mouse, strain B6C3F1, females, oral dosing, site: lung, lesion: several types, types named in the paper, dosed 76 weeks, study length 76 weeks). Also, the TD50 under setting [5] was 1230 mg/kg/day (inactive); the TD50 under setting [7] was 141 mg/kg/day (inactive); the TD50 under setting [8] was 382 mg/kg/day (inactive); the TD50 (mouse, strain B6C3F1, males, oral dosing, site: lung, lesion: adenoma, dosed 76 weeks, study length 76 weeks) was 382 mg/kg/day (inactive).
As to `CCC(Br)(CC)C(=O)NC(N)=O`, the TD50 by setting is: (mouse, strain B6C3F1, females, in feed, site: any site (literature study), lesion: several types, types named in the paper, dosed 78 weeks, study length 104 weeks) 5320 mg/kg/day; (mouse, strain B6C3F1, females, in feed, site: liver, lesion: hepatocellular adenoma + hepatocellular carcinoma + neoplastic nodule, dosed 78 weeks, study length 104 weeks) 1950 mg/kg/day; (mouse, strain B6C3F1, females, in feed, site: lung, lesion: alveolar/bronchiolar adenoma + alveolar/bronchiolar carcinoma, dosed 78 weeks, study length 104 weeks) 553 mg/kg/day (inactive) and 553 mg/kg/day; (mouse, strain B6C3F1, males, in feed, site: liver, lesion: hepatocellular adenoma + hepatocellular carcinoma + neoplastic nodule, dosed 78 weeks, study length 104 weeks) 1580 mg/kg/day; under setting [10], 1030 mg/kg/day (inactive). In addition, the carcinogen call reads like this: (mouse, strain B6C3F1, males, in feed, site: any site (literature study), lesion: several types, types named in the paper, dosed 78 weeks, study length 104 weeks) “negative (inactive)”; under setting [9], “negative (inactive)”.
Consider `N[C@@H](CCC(=O)NNc1ccc(C(=O)O)cc1)C(=O)O`, for which the TD50 was 41400 mg/kg/day (mouse, strain Swiss albino, females, by gavage, site: liver, lesion: several types, types named in the paper, dosed 52 weeks, study length 133 weeks); 250 mg/kg/day (mouse, strain Swiss albino, males, by gavage, site: lung, lesion: several types, types named in the paper, dosed 52 weeks, study length 133 weeks); 277 mg/kg/day (mouse, strain Swiss albino, males, by gavage, site: subcutaneous tissue, lesion: fibrosarcoma, dosed 52 weeks, study length 133 weeks).
Consider `CC(=O)Nc1ccc2c(c1)C(=O)c1ccccc1-2`, for which the TD50 (rat, strain Buffalo, females, in feed, site: ear duct, lesion: squamous-cell carcinoma, dosed 86 weeks, study length 86 weeks) is 32 mg/kg/day; the TD50 (rat, strain Buffalo, females, in feed, site: liver, lesion: hepatoma, dosed 86 weeks, study length 86 weeks) is 102 mg/kg/day; the TD50 (rat, strain Buffalo, females, in feed, site: mammary gland, lesion: adenocarcinoma, dosed 86 weeks, study length 86 weeks) is 6.17 mg/kg/day.
`Cc1ccc2ccccc2c1` gave a TD50 (mouse, strain B6C3F1, females, in feed, site: liver, lesion: hepatocellular adenoma, dosed 81 weeks, study length 81 weeks) of 6060 mg/kg/day; a TD50 (mouse, strain B6C3F1, females, in feed, site: lung, lesion: several types, types named in the paper, dosed 81 weeks, study length 81 weeks) of 4010 mg/kg/day; a TD50 (mouse, strain B6C3F1, males, in feed, site: lung, lesion: alveolar/bronchiolar adenoma, dosed 81 weeks, study length 81 weeks) of 735 mg/kg/day; a TD50 (mouse, strain B6C3F1, males, in feed, site: lung, lesion: alveolar/bronchiolar carcinoma, dosed 81 weeks, study length 81 weeks) of 2780 mg/kg/day; a TD50 (mouse, strain B6C3F1, males, in feed, site: lung, lesion: several types, types named in the paper, dosed 81 weeks, study length 81 weeks) of 205 mg/kg/day.
Regarding `CC1=C[C@H]2O[C@@H]3[C@H](O)C[C@](C)([C@@]2(CO)[C@H](O)C1=O)[C@]31CO1`, the carcinogen call by setting is: (mouse, strain B6C3F1, males, in feed, site: liver, lesion: hepatocellular adenoma, dosed 104 weeks, study length 104 weeks) “negative (inactive)”; (mouse, strain B6C3F1, males, in feed, site: liver, lesion: hepatocellular carcinoma, dosed 104 weeks, study length 104 weeks) “negative (inactive)”.
Consider `NNC=O`, for which the TD50 by setting is: (mouse, strain Swiss albino, females, in drinking water, site: liver, lesion: several types, types named in the paper, dosed 83 weeks, study length 83 weeks) 6860 mg/kg/day; (mouse, strain Swiss albino, females, in drinking water, site: lung, lesion: several types, types named in the paper, dosed 83 weeks, study length 83 weeks) 36 mg/kg/day; (mouse, strain Swiss albino, males, in drinking water, site: liver, lesion: several types, types named in the paper, dosed 83 weeks, study length 83 weeks) 1150 mg/kg/day. The carcinogen call (mouse, strain Swiss albino, males, in drinking water, site: lung, lesion: several types, types named in the paper, dosed 83 weeks, study length 83 weeks) was “positive”.
